From ChEMBL document CHEMBL3886889, “Substituted [1,2,4]triazolo[4,3-a]pyrazines as selective NK-3 receptor antagonists” (2016) come the findings set out here.

The structures appear in SMILES notation.

In test [1] the target is T1, Neuromedin-K receptor (Homo sapiens, UniProt P29371).
T1 sequence (P29371 whole entry): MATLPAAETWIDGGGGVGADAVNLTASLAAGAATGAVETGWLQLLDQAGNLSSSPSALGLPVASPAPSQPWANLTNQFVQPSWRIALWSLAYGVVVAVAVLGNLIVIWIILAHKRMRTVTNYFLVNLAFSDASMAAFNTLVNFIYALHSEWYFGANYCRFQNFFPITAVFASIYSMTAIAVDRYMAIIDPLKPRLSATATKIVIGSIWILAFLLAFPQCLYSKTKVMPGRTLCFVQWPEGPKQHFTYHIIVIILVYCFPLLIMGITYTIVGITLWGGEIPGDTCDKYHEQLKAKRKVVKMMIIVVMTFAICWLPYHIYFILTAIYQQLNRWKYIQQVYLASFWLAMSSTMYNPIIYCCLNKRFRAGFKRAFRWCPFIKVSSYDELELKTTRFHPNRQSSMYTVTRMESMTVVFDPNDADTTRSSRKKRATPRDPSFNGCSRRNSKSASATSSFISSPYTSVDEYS
Put plainly: Functional Assay: Chinese Hamster Ovary recombinant cells expressing the human NK-3 receptor and a construct that encodes the photoprotein apoaequorin were used for this assay. The antagonist activity of compounds of the invention is measured following pre-incubation (3 minutes) of the compound (at various concentrations) with the cells, followed by addition of the reference agonist (NKA) at a final concentration equivalent to the EC80 (3 nM) and recording of emitted light (FDSS 6000 Hamamatsu) over the subsequent 90-second period. The intensity of the emitted light is integrated using the reader software. Compound antagonist activity is measured based on the concentration-dependent inhibition of the luminescence response to the addition of Neurokinin A.

Test [2] has as its target T1, Neuromedin-K receptor. The experiment in a line: Competitive Binding Assay: The affinity of compounds of the invention for the human NK-3 receptor was determined by measuring the ability of compounds of the invention to competitively and reversibly displace a well-characterized NK-3 radioligand in a concentration-dependent manner.3H-SB222200 Binding Competition Assay with Human NK-3 ReceptorThe ability of compounds of the invention to inhibit the binding of the NK-3 receptor selective antagonist 3H-SB222200 was assessed by an in vitro radioligand binding assay. Membranes were prepared from Chinese hamster ovary recombinant cells stably expressing the human NK-3 receptor. The membranes were incubated with 5 nM 3H-SB222200 (ARC) in a HEPES 25 mM/NaCl 0.1M/CaCl2 1 mM/MgCl2 5 mM/BSA 0.5%/Saponin 10 μg/ml buffer at pH 7.4 and various concentrations of compounds of the invention. The amount of 3H-SB222200 bound to the receptor was determined after filtration by the quantification of membrane associated radioactivity using the TopCount-NXT reader (Packard).

For `CCC1c2nnc(-c3nc(C)ns3)n2CCN1C(=O)c1ccc(F)cc1` (racemic), the IC50 in test [1] came out at 220 nM. Moreover, the Ki in test [2] is 150 nM.
As for `Cc1nsc(-c2nnc3n2CCN(C(=O)c2ccc(F)cc2)C3CCO)n1` (racemic), the IC50 in test [1] worked out at 170 nM. The Ki in test [2] was 59 nM.
